Results: US10675294B2, “Pharmaceutical composition containing 8 OXO-deoxyguanosine or pharmaceutically acceptable salt thereof as active ingredient for treating corneal disease” (GACHON UNIVERSITY OF INDUSTRY-ACADEMIC COOPERATION …, priority 2016, dated 2020)

Assays:
[1] = test system: ethanol induced corneal injury mouse model; test: Visual and lysamine green staining observation of corneal epithelium surface; format: in vivo; conditions: 5 mg/ml and 10 mg/ml in the eye twice a day for a week; compared with control (PBS); FIG. 3
Experimental: (§1) Particularly, in order to construct a corneal injury mouse model using ethanol, a filter paper of 6 mm in diameter soaked in 100% ethanol was applied onto the cornea of the right eye of a female BALB/c mouse at 10 weeks of age for 30 seconds, followed by irrigation with PBS (phosphate-buffered saline) for 1 minute. In order to observe the defects of the corneal epithelium surface easily, the lysamine green reagent, which selectively stains the epithelium defect area, was treated on the surface of the damaged corneal epithelium and washed with physiological saline.
The 8-oxo-2′-deoxyguanosine compound prepared at the concentrations of 5 mg/ml and 10 mg/ml and the control PBS (phosphate-buffered saline) were applied into the eye of the ethanol induced corneal injury mouse model constructed in Example 1, respectively twice a day for a week, followed by observation with the naked eye and photographs (n=15 in each group).

[2] = test system: ethanol induced corneal injury mouse model; test: Clinical index scoring of corneal epithelium damage recovery; format: in vivo
Experimental: as §1
8-oxo-dG was applied into the eye of the ethanol induced corneal injury mouse model for a week and then the recovery of the corneal epithelium damage was investigated. Particularly, the ethanol induced corneal injury mouse model examined in Experimental Example 1 was injected with Zoletil intramuscularly in order to anesthetize the mouse, followed by lysamine green staining on the cornea. Then, epithelial integrity and clarity of the corneal epithelium and corneal neovascularization were investigated and the results proceeded to clinical grading and scoring by items.
The corneal clarity was also evaluated and scored step by step. The indexes of the evaluation are as follows (Fantes et al, Arch Ophthalmol 1990).
In addition, in order to evaluate and score the degree of corneal neovascularization, the cornea was divided into quadrants as shown in FIG. 1. Based on the limbus between the cornea and the sclera, 0.5 points were assigned to each part of the newly formed vessels in the inside, followed by indexing and scoring (total 12 scores) (Li et al, Molecular Vision 2010).
During the application of 8-oxo-dG into the eye for a week, corneal staining was performed for a week to graphically identify the recovery of the corneal epithelial defects on daily basis.

[3] = test system: ethanol induced corneal injury mouse model; test: Histological observation (H&E) of corneal tissue; format: in vivo; conditions: 5 mg/ml or 10 mg/ml in the eye twice a day for a week; n=2; FIGS. 5a, 5b
Experimental: as §1
The ethanol induced corneal injury mouse model constructed in Example 1 was administered with 8-oxo-dG in the eye at the concentration of 5 mg/ml or 10 mg/ml and the control PBS (phosphate-buffered saline), twice a day for a week. The corneal tissues were extracted and fixed in 10% paraformaldehyde, followed by washing with PBS. The tissues were embedded in paraffin and the paraffin block was stained with H&E (haematoxylin and eosin), followed by direct observation under the microscope. The stromal thickness was measured by using Image J software.

[4] = test system: neutrophils, macrophages and T cells; test: Immunohistochemical staining of inflammatory cells in corneal tissue; format: in vivo, mouse; conditions: 5 mg/ml or 10 mg/ml in the eye twice a day for a week, compared with control
Experimental: as §1
Particularly, the ethanol induced corneal injury mouse model constructed in Example 1 was administered with 8-oxo-dG in the eye at the concentration of 5 mg/ml or 10 mg/ml and the control PBS (phosphate-buffered saline), twice a day for a week. The corneal tissues were extracted and fixed in 10% paraformaldehyde, followed by washing with PBS. The tissues were treated with anti-neutrophil elastase, anti CD3 and anti F4/80 antibodies (Abcam, Cambridge, UK), the markers of neutrophils, T lymphocytes and macrophages. After washing with PBS, the secondary antibody (REAL™ EnVision™ detection system, Dako) was applied thereto. […] The immunostained cells in each section were counted by hand by two skilled examiners and the numbers were averaged.

IL-1β = test: Inflammatory cytokine mRNA expression in corneal tissue by real time PCR; format: in vivo, mouse; conditions: 10 mg/ml in the eye twice a day for a week; compared with control; FIG. 7b
Experimental: as §1
(§2) Particularly, the ethanol induced corneal injury mouse model constructed in Example 1 was administered with 8-oxo-dG in the eye at the concentration of 5 mg/ml or 10 mg/ml and the control PBS (phosphate-buffered saline), twice a day for a week. The corneal tissue was extracted and homogenized with a sonicator (Ultrasonic Processor, Cole Parmer Instruments, Vernon Hills, Ill., USA). Then, corneal RNA was extracted by using RNeasy Mini kit (Qiagen, Valencia, Calif., USA). CDNA was synthesized with the same amount of RNA of each corneal sample and real-time PCR (ABI 7500 Real Time PCR System, Applied Biosystems, Carlsbad, Calif., USA) was performed. Taqman Gene Expression Assays were used for real-time PCR. The detailed inflammatory cytokines were as follows. […]

IL-6 = test: as above; format: in vivo, mouse; conditions: 5 mg/ml or 10 mg/ml in the eye twice a day for a week; three groups incl. PBS; FIG. 7c
Experimental: as §1, §2

TNF-α = test: as above; format: in vivo, mouse; conditions: 5 mg/ml or 10 mg/ml in the eye twice a day for a week; compared with control; FIG. 7a
Rac protein = conditions: exogenous 8-oxo-dG; previous experiments with animal models; cited from earlier work

With `Nc1nc2c([nH]c(=O)n2[C@H]2CC(O)[C@@H](CO)O2)c(=O)[nH]1` (some centres unmarked) [8-oxo-dG, 8-oxo-2′-deoxyguanosine] as the molecule, how does the “corneal epithelium surface damage, lysamine green staining (after staining)” value [1] read?
Its value is “reduced significantly by the treatment of 8-oxo-dG dose-dependently”.

And the “corneal epithelium surface damage, naked eye (before staining)” value [1]?
Its value is “reduced by the treatment of 8-oxo-dG dose-dependently”.

What about the neovascularization scoring index ([2]; 5 mg/ml or 10 mg/ml in the eye twice a day for a week, FIG. 4c) of the same molecule?
The neovascularization scoring index was “reduced in the group treated with 8-oxo-dG to some degree”.

And the “epithelial integrity index score (defect of the corneal epithelium surface)” value ([2]; 5 mg/ml or 10 mg/ml in the eye twice a day for a week, compared with PBS, FIG. 4a)?
The value was “reduced in the group treated with 8-oxo-dG dose-dependently”.

And the “corneal clarity scoring index” value ([2]; 5 mg/ml or 10 mg/ml in the eye twice a day for a week, lower index = improved clarity, FIG. 4b)?
The value was “reduced in the group treated with 8-oxo-dG dose-dependently”.

What about the “daily recovery of corneal epithelial defects (corneal staining index score)” value ([2]; 5 mg/ml or 10 mg/ml in the eye, daily corneal staining for a week, FIG. 4d) of the same molecule?
Its value is “significantly reduced in the group treated with 8-oxo-dG dose-dependently”.

What about the “corneal epithelium tissue condition/thickness (H&E)” value [3] of the same molecule?
Its value is “restored to the normal level”.

What about the “number of cells stained with anti-neutrophil elastase (neutrophils)” value ([4]; FIG. 6a) of the same molecule?
Its value is “reduced significantly”.

And the “number of cells stained with anti F4/80 (macrophages)” value ([4]; FIG. 6b)?
Its value is “reduced significantly”.

And the “number of cells stained with anti CD3 (T cells)” value ([4]; FIG. 6c)?
Its value is “not much different”.

And the “expression of IL-1β mRNA” value (IL-1β)?
The value was “significantly reduced”.

And the “expression of IL-6 mRNA” value (IL-6)?
Its value is “not much different”.

And the “expression of TNF-α mRNA” value (TNF-α)?
Its value is “not significantly but slightly reduced”.

And the “effect on Rac protein (GTPase)” value (Rac protein)?
Its value is “inactivated Rac protein”.
